# Measured values from PubChem BioAssay (NCI).
# Several values for one entry are separate records, joined by “and”; a condition that tells them apart may be missing. Equal entries are not always repeated.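 1) Cells in 96-well plates. 2) Compound, 48 h, 5 concentrations. 3) Linear interpolation between surrounding doses. 4) Unreached endpoint = highest concentration. GI50 marks 50% less growth. At the TGI there is no net growth.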 Activity calls are given as the source filed them. No stated cut-off is given here; in the data, active means GI50 below about 0.43 µM; inactive means the rest.
# Tested on: MDA-MB-468 breast
# Assay: DTP human tumour cell line panel, 48 h
Compound,GI50,TGI,outcome
COc1ccc(C2=NN(C(N)=S)C(c3ccc4c(c3)OCO4)C2)cc1 (stereo not drawn),2680 nM,11 µM,
Cn1cc(C2=C(c3ccsc3)C(=O)NC2=O)c2ccccc21,> 22300 nM,> 25 µM,
CCOC(=O)c1noc2c1CCc1c-2cn(Cc2ccc(OC)cc2)c1-c1cc(OC)c(OC)c(OC)c1,5620 nM,> 100 µM,
N#CCCNc1nonc1-c1nc2ccccc2n1CC(=O)c1ccc(N)cc1,16.8 nM,0.0683 µM,
Cc1ccc(NC(=O)c2ccc(CN3CCN(C)CC3)cc2)cc1Nc1nc(-c2cccnc2)cs1,2980 nM and 2620 nM,15.3 µM and > 10 µM,
COc1cc2cc(NCc3cccc(Cl)c3)nc(C)c2cc1OC,4060 nM,24.3 µM,
O=C(N/N=C/c1ccc(Cl)cc1)c1ccc(NC(=O)c2ccccn2)cc1,23200 nM,95.2 µM,
CCC(=C(c1ccc(OCCN2CCCCC2)cc1)c1ccc(OCCN2CCCCC2)cc1)c1ccc(Cl)cc1,3330 nM,> 16.7 µM,
C[C@@H]1CN2[C@H]3[C@@H]1CC[C@]31CCC(=O)O[C@]1(C)[C@H]1CC[C@H]3CCC=C3[C@@H]12,> 30000 nM,> 30 µM,
COc1ccc2c(c1)[C@@H](NC(C)=O)CCc1cc(OC)c(OC)c(OC)c1-2,69.8 nM,> 100 µM,
N#CC1=C(N)Oc2c(sc3c(Br)cccc23)C1c1ccc([N+](=O)[O-])cc1 (stereo not drawn),318 nM,7.27 µM,
O=C(CCCc1ccc(N(CCCl)CCCl)cc1)NCc1ccccc1,2750 nM,10.3 µM,
COc1cccc2c1nc(C(F)F)n2-c1nc(-c2ccc(NS(=O)(=O)CCN(C)C)cc2)nc(N2CCOCC2)n1,71.1 nM,0.492 µM,
CC(C)(C)CC(C)(C)c1ccc(OCCO)cc1,,,inactive
O=C(/C=C\c1ccc(O)c(O)c1)c1ccccc1O,2980 nM,16.7 µM,
COc1cc(/C=C/C(=O)c2cccc(-n3cc(-c4ccccc4)[nH]c3=O)c2)cc(OC)c1OC,1800 nM,3.54 µM,
Cn1cc(-c2ccc3nc(-c4ccc(CC(=O)Nc5cc(C(C)(C)C)no5)cc4)cnc3c2)cn1,70.2 nM,> 3 µM,
COC(=O)c1cc2ccc(O)c(O)c2cn1,14100 nM,27.2 µM,
O=C1C=C(Nc2ccccc2)c2ccccc2C1=O,2040 nM,5.94 µM,
CN1CCN(Cc2ccc(NC(=O)c3cncc(C#Cc4cnc(N)c5ncccc45)c3)cc2C(F)(F)F)CC1,368 nM,1.68 µM,
Sc1cccc2cccnc12,2710 nM,15.6 µM,
COC(=O)c1c2c(c(C)[n+]([O-])c1C)C(=O)C(NCc1ccc(OC)cc1)=CC2=O,1270 nM,3.06 µM,
CCOc1ccc(N(C)c2ccc(/C=C/C3=[N+](C)c4ccccc4C3(C)C)cc2)cc1,161 nM,1.03 µM,
CN1C(=O)C(c2c[nH]c3ccccc23)=C(c2c[nH]c3ccccc23)C1=O,5120 nM,19 µM,
CC1(C)N=C(N)N=C(N)N1c1ccc(OCCCNC(=O)Nc2ccc(S(=O)(=O)F)cc2)c(Cl)c1,818 nM,29.1 µM,

Compound,GI50,TGI,outcome
CC(C)=CCC/C(C)=C/CC/C(C)=C/CSC[C@H](NC(=O)CCCCCN1CCN(C)CC1)C(=O)NC1CCCCCC1,2060 nM,4.89 µM,
Cn1ncnc1[C@@H]1c2n[nH]c(=O)c3cc(F)cc(c23)N[C@H]1c1ccc(F)cc1,> 100000 nM,> 100 µM,
ClC1=C(Cl)C(Cl)(C2(Cl)C(Cl)=C(Cl)C(Cl)=C2Cl)C(Cl)=C1Cl,334 nM,1.42 µM,
Nc1c(C(=O)Nc2cccc(Cl)c2)sc2nc3c(cc12)C(=O)CCC3,87.9 nM,1.3 µM,
Cc1[nH]nc2ccc(-c3nc4cnc(N5CCN(C)CC5)cn4c3Nc3ccc(F)cc3Br)cc12,1570 nM,3.31 µM,
CC(C)=CCc1cc2c(cc1O)C1=C(C(=O)C3=C(NCCS3(=O)=O)C1=O)C(C=C(C)C)O2 (stereo not drawn),3270 nM,12.8 µM,
COC(=O)[C@@H](C)C[C@H](Cc1ccccc1)NC(=O)c1nc([C@@H](C[C@H](C(C)C)N(C)C(=O)[C@@H](NC(=O)[C@H]2C[C@H](O)CCN2C)C(C)C)OC(C)=O)sc1C(C)C,< 1.11 nM,,
O=C(NCc1cn(Cc2cccc(Oc3ccccc3)c2)nn1)c1cccnc1Nc1ccc(F)cc1,5170 nM,> 100 µM,
CC1=C(CCCOC(=O)[C@H](N)CC(C)C)C2=C(C)C3(CC3)[C@@](C)(O)C(=O)C2=C1,1370 nM,4.6 µM,
CCN1CCN(CCC(=O)Nc2cccc(-n3cc(-c4ccncc4)c(-c4ccc(Cl)c(OC)c4)n3)c2)CC1,325 nM,1.41 µM,
Nc1ccc(/C=C/c2ccc3ncccc3c2)cc1,> 100000 nM,> 100 µM,
COC(=O)N[C@H]1CCc2cc(OC)c(OC)c(OC)c2-c2ccc(SC)c(=O)cc21,< 10 nM,> 100 µM,
CCN(Cc1ccc(OC)cc1)c1ccc(CO)c(Cl)c1,16.7 nM,0.0413 µM,
CC(Nc1ncnc2ccc(-c3cnc(N)nc3)cc12)c1ccccc1 (stereo not drawn),1170 nM,4.03 µM,
C=CCc1cccc(C=O)c1O,> 100000 nM,> 100 µM,
C/C(=C\C(=O)O[C@H]1[C@@H]2[C@H](C)CC[C@H]2[C@]2(C)O[C@@]1(C1CCCCC1)C[C@H]2OC(=O)CO)c1ccccc1,6700 nM,13.4 µM,
CCCCn1c(=O)[nH]c(N)c([C@@H]2c3c([nH]c(=O)n(CCCC)c3=O)Oc3ccc4ccccc4c32)c1=O,13400 nM,33.4 µM,
O=[N+]([O-])c1ccc(C2=NCCO2)cc1,> 100000 nM,> 100 µM,
O=S(=O)(NCCCNc1cc(-c2cn(-c3ccccc3)nc2-c2cccc(O)c2)ccn1)c1ccc(C(F)(F)F)cc1,1800 nM,5.55 µM,
O=c1[nH]c2ccccc2n1C1CCNCC1,> 100000 nM,> 100 µM,
COc1ccc(-c2nc3sc(-c4cc(OC)c(OC)c(OC)c4)nn3c2/C=C2/C(=O)Nc3ccc(F)cc32)cc1,2530 nM,7.88 µM,
O=C1NC(=O)C(c2c[nH]c3ccccc23)=C1c1c[nH]c2ccccc12,8280 nM,> 25 µM,
CNC(=O)Oc1cc(C(C)C)ccc1Sc1ccc(C(C)C)cc1OC(=O)NC,2340 nM,9.89 µM,
CC(C)=CC[C@@H]1CC2(CC=C(C)C)C(=O)C(OC3(C(=O)c4ccccc4)C(=O)C4(CC=C(C)C)C[C@@H](CC=C(C)C)C(C)(C)C(CC=C(C)C)(C4=O)C3=O)(C(=O)c3ccccc3)C(=O)C(CC=C(C)C)(C2=O)C1(C)C (stereo partly drawn),1230 nM,3.28 µM,
CC(=O)/C(=C\c1ccc(Cl)cc1)c1ccccc1,36.1 nM,> 100 µM,
